Reference: article PMC9749896 (Bioorganic & medicinal chemistry letters, 2022)

Key:
[1] = tested on: Ba/F3 EGFR^L858R/T790M/C797S cells; test: cells; conditions: Mus musculus, BaF3, read-out: cell EC50, Ba/F3 EGFR L858R/T790M/C797S
[2] = tested on: Ba/F3 EGFR^L858R/T790M cells; test: cells; conditions: Mus musculus, BaF3, read-out: cell EC50, Ba/F3 EGFR L858R/T790M
H1975 (EGFR^L858R/T790M) = conditions: daily oral dosing at 100 mg/kg; cited from earlier work
[3] = tested on: Ba/F3 EGFR^L858R/T790M cells; conditions: cited from earlier work
A431 (wt EGFR) = conditions: daily oral dosing at 50 mg/kg; cited from earlier work
[4] = tested on: EGFR^L858R/T790M/C797S models; conditions: daily oral dosing at 50 mg/kg; cited from earlier work

CN1CCC(c2ccc(-c3ccc4ncn(C(C(=O)Nc5nccs5)c5ccccc5)c(=O)c4c3)cc2)CC1 (stereo not drawn) [Compound 23]
EC50 [1]: 50 nM
EC50 [2]: 720 nM

O=C(Nc1nccs1)C(c1cc(F)ccc1O)N1Cc2ccc(-c3ccc(N4CCNCC4)cc3)cc2C1=O (stereo not drawn) [Compound 2]
H1975 model efficacy (H1975 (EGFR^L858R/T790M)): efficacy was observed
single-agent activity in Ba/F3 EGFR L858R/T790M antiproliferative assay [3]: good single-agent activity

CN1CCC(c2ccc(-c3ccc4c(c3)C(=O)N(C(C(=O)Nc3nccs3)c3cc(F)ccc3O)C4)cc2)CC1 (stereo not drawn) [Compound 4]
efficacy in A431 (wt EGFR) model (A431 (wt EGFR)): minimal effects
efficacy in triple mutant (EGFR L858R/T790M/C797S) models [4]: tumor regression
